From patent publication US20250135020A1, “METHODS FOR TREATING NON-MUSCLE INVASIVE BLADDER CANCER (NMIBC) WITH ANTIBODY DRUG CONJUGATES (ADC) THAT BIND TO 191P4D12 PROTEINS” (priority 2021, published 2025) come the findings set out here.

Non-standard residues stand in square brackets, D forms with d. Residues, ends and D or L forms follow the SMILES beside them. *: point of attachment. Dolaproine = CO[C@@H]([C@@H]1CCCN1)[C@@H](C)C(=O)O; Dil = CC[C@H](C)[C@H](NC)[C@@H](CC(=O)O)OC; X1 = C[C@@H](N*)[C@@H](O)c1ccccc1; NMeV = CN[C@H](C(=O)O)C(C)C

For the assay, the system named is Nectin-4 overexpressing bladder carcinoma cells (UM-UC-3-hNectin-4+). In words: In vitro cytotoxic activity under conditions that mimic intravesical dosing (Cell TiterGlo). In kind it is cell-based, human. To be noted: UM-UC-3-hNectin-4+ cells; 2 h exposure then wash out vs 96 h; cell death by Cell TiterGlo.

Protocol: To assess cytotoxic activity of EV in vitro under conditions that mimic intravesical dosing, Nectin-4 overexpressing bladder carcinoma cells (UM-UC-3-hNectin-4^+) were exposed to either EV, unconjugated anti-Nectin-4 antibody, unconjugated MMAE, or control ADC (FIG. 2). IV dosing was modeled by exposing the cells for 96 hours. Intravesical dosing was modeled with exposures of 2 and 24 hours followed by test article wash out. Cell death was measured using Cell TiterGlo® (Promega Corporation, Madison, WI, USA).

Take `CC[C@H](C)[C@@H]([C@@H](CC(=O)N1CCC[C@H]1[C@H](OC)[C@@H](C)C(=O)N[C@H](C)[C@@H](O)c1ccccc1)OC)N(C)C(=O)[C@@H](NC(=O)[C@@H](NC)C(C)C)C(C)C` [unconjugated MMAE, monomethyl auristatin E] (H-[NMeV]V[Dil][Dolaproine]-X1): the “Decrease in potency (EC90) on decreasing the exposure from 96 to 2 hours” value is listed as 44 fold.
